Legend:
[1] = target: T1, Solute carrier organic anion transporter family member 1A1 (Rattus norvegicus, UniProt P46720); assay: TP_TRANSPORTER: inhibition of Pravastatin uptake (Pravastatin: 0.5 uM, BMS243887: 50 uM) in Oatp1-expressing 293c18 cells; type: functional, cell-based; details: human, hek293-ebna
T1 sequence (P46720 whole entry): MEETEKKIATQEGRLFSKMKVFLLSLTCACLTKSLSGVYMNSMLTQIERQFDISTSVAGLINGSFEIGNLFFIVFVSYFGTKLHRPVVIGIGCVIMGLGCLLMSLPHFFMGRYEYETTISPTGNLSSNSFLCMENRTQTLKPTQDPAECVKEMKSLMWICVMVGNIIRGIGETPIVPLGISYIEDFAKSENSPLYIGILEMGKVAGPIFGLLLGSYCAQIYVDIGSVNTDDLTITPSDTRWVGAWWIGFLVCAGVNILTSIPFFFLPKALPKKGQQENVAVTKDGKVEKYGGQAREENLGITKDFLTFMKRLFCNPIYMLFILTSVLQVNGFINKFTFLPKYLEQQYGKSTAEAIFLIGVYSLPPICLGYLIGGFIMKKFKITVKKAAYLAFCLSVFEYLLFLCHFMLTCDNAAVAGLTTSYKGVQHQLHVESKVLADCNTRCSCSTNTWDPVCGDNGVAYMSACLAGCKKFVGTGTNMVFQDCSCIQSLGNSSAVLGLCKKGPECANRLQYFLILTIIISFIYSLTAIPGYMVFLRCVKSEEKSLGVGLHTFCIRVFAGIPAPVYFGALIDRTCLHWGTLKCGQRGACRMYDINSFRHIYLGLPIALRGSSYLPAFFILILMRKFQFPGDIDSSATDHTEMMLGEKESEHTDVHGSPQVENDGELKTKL

[2] = target: T2, Solute carrier organic anion transporter family member 1B1 (Homo sapiens, UniProt Q9Y6L6); assay: TP_TRANSPORTER: inhibition of Taurocholate uptake (Taurocholate: 0.5 uM, BMS243887: 50 uM) in OATP-C-expressing 293c18 cells; type: functional, cell-based; details: hek293-ebna
T2 sequence (Q9Y6L6 whole entry): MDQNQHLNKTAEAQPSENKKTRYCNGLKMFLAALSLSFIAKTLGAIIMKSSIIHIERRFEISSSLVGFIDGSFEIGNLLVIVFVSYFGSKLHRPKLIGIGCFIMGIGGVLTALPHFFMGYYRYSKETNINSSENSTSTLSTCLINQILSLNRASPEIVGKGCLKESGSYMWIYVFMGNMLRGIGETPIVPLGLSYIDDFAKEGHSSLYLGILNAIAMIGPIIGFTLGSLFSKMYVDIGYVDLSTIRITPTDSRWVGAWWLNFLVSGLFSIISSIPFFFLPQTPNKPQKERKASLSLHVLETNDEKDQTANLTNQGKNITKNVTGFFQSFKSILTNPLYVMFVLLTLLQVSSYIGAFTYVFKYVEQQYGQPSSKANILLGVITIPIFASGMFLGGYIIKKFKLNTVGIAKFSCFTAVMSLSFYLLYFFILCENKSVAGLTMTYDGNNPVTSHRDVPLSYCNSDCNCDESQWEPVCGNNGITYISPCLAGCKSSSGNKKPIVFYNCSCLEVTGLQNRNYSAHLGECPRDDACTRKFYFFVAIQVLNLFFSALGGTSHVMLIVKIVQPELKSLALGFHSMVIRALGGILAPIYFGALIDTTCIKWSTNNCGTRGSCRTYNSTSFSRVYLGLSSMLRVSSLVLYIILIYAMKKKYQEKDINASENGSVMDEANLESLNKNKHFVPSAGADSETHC

[3] = target: T1, Solute carrier organic anion transporter family member 1A1; assay: TP_TRANSPORTER: inhibition of Taurocholate uptake (Taurocholate: 0.5 uM, BMS243887: 50 uM) in Oatp1-expressing 293c18 cells; type: functional, cell-based; details: human, hek293-ebna
[4] = target: T2, Solute carrier organic anion transporter family member 1B1; assay: TP_TRANSPORTER: inhibition of Pravastatin uptake (Pravastatin: 0.5 uM, BMS243887: 50 uM) in OATP-C-expressing 293c18 cells; type: functional, cell-based; details: hek293-ebna
[5] = target: T2, Solute carrier organic anion transporter family member 1B1; assay: TP_TRANSPORTER: inhibition of Taurocholate uptake (Taurocholate: 0.5 uM, Atorvastatin: 50 uM) in OATP-C-expressing 293c18 cells; type: functional, cell-based; details: hek293-ebna
[6] = target: T1, Solute carrier organic anion transporter family member 1A1; assay: TP_TRANSPORTER: inhibition of Taurocholate uptake (Taurocholate: 0.5 uM, Atorvastatin: 50 uM) in Oatp1-expressing 293c18 cells; type: functional, cell-based; details: human, hek293-ebna
[7] = target: T2, Solute carrier organic anion transporter family member 1B1; assay: TP_TRANSPORTER: inhibition of Pravastatin uptake (Pravastatin: 0.5 uM, Atorvastatin: 50 uM) in OATP-C-expressing 293c18 cells; type: functional, cell-based; details: hek293-ebna
[8] = target: T1, Solute carrier organic anion transporter family member 1A1; assay: TP_TRANSPORTER: inhibition of Pravastatin uptake (Pravastatin: 0.5 uM, Atorvastatin: 50 uM) in Oatp1-expressing 293c18 cells; type: functional, cell-based; details: human, hek293-ebna
[9] = target: T2, Solute carrier organic anion transporter family member 1B1; assay: TP_TRANSPORTER: inhibition of Pravastatin uptake (Pravastatin: 0.5 uM, BMS241423: 50 uM) in OATP-C-expressing 293c18 cells; type: functional, cell-based; details: hek293-ebna
[10] = target: T2, Solute carrier organic anion transporter family member 1B1; assay: TP_TRANSPORTER: inhibition of Taurocholate uptake (Taurocholate: 0.5 uM, BMS241423: 50 uM) in OATP-C-expressing 293c18 cells; type: functional, cell-based; details: hek293-ebna
[11] = target: T1, Solute carrier organic anion transporter family member 1A1; assay: TP_TRANSPORTER: inhibition of Taurocholate uptake (Taurocholate: 0.5 uM, BMS241423: 50 uM) in Oatp1-expressing 293c18 cells; type: functional, cell-based; details: human, hek293-ebna
[12] = target: T1, Solute carrier organic anion transporter family member 1A1; assay: TP_TRANSPORTER: inhibition of Pravastatin uptake (Pravastatin: 0.5 uM, BMS241423: 50 uM) in Oatp1-expressing 293c18 cells; type: functional, cell-based; details: human, hek293-ebna
[13] = target: T2, Solute carrier organic anion transporter family member 1B1; assay: (§1) TP_TRANSPORTER: uptake in OATP-C-expressing 293c18 cells; type: functional, cell-based; details: hek293-ebna
[14] = target: T2, Solute carrier organic anion transporter family member 1B1; assay: TP_TRANSPORTER: inhibition of Taurocholate uptake (Taurocholate: 0.5 uM, Lovastatin: 50 uM) in OATP-C-expressing 293c18 cells; type: functional, cell-based; details: hek293-ebna
[15] = target: T1, Solute carrier organic anion transporter family member 1A1; assay: TP_TRANSPORTER: inhibition of Taurocholate uptake (Taurocholate: 0.5 uM, Lovastatin: 50 uM) in Oatp1-expressing 293c18 cells; type: functional, cell-based; details: human, hek293-ebna
[16] = target: T2, Solute carrier organic anion transporter family member 1B1; assay: TP_TRANSPORTER: inhibition of Pravastatin uptake (Pravastatin: 0.5 uM, Lovastatin: 50 uM) in OATP-C-expressing 293c18 cells; type: functional, cell-based; details: hek293-ebna
[17] = target: T1, Solute carrier organic anion transporter family member 1A1; assay: TP_TRANSPORTER: inhibition of Pravastatin uptake (Pravastatin: 0.5 uM, Lovastatin: 50 uM) in Oatp1-expressing 293c18 cells; type: functional, cell-based; details: human, hek293-ebna
[18] = target: T1, Solute carrier organic anion transporter family member 1A1; assay: TP_TRANSPORTER: inhibition of Taurocholate uptake (Taurocholate: 0.5 uM, DHEAS: 50 uM) in Oatp1-expressing 293c18 cells; type: functional, cell-based; details: human, hek293-ebna
[19] = target: T1, Solute carrier organic anion transporter family member 1A1; assay: TP_TRANSPORTER: inhibition of Pravastatin uptake (Pravastatin: 0.5 uM, DHEAS: 50 uM) in Oatp1-expressing 293c18 cells; type: functional, cell-based; details: human, hek293-ebna
[20] = target: T1, Solute carrier organic anion transporter family member 1A1; assay: TP_TRANSPORTER: inhibition of Taurocholate uptake (Taurocholate: 0.5 uM, Simvastatin: 50 uM) in Oatp1-expressing 293c18 cells; type: functional, cell-based; details: human, hek293-ebna
[21] = target: T1, Solute carrier organic anion transporter family member 1A1; assay: TP_TRANSPORTER: inhibition of Pravastatin uptake (Pravastatin: 0.5 uM, Simvastatin: 50 uM) in Oatp1-expressing 293c18 cells; type: functional, cell-based; details: human, hek293-ebna
[22] = substrate: CC[C@H](C)C(=O)O[C@H]1C[C@H](O)C=C2C=C[C@H](C)[C@H](CC[C@@H](O)C[C@@H](O)CC(=O)O)[C@H]21; assay: as §1; type: functional, cell-based, HEK293-EBNA
[23] = substrate: CC[C@H](C)C(=O)O[C@H]1C[C@H](O)C=C2C=C[C@H](C)[C@H](CC[C@@H](O)C[C@@H](O)CC(=O)O)[C@H]21; assay: TP_TRANSPORTER: uptake in Oatp1-expressing 293c18 cells; type: functional, cell-based, HEK293-EBNA

CC(C)c1c(C(=O)Nc2ccccc2O)c(-c2ccccc2)c(-c2ccc(F)cc2)n1CC[C@@H](O)C[C@@H](O)CC(=O)O
Activity [1]: inhibitor [+] | Activity [2]: inhibitor [+] | Activity [3]: inhibitor [+] | Activity [4]: inhibitor [+]

CC(C)c1c(C(=O)Nc2ccccc2)c(-c2ccccc2)c(-c2ccc(F)cc2)n1CC[C@@H](O)C[C@@H](O)CC(=O)O [ATORVASTATIN]
Activity [5]: inhibitor [+] | Activity [6]: inhibitor [+] | Activity [7]: inhibitor [+] | Activity [8]: inhibitor [+]

CC(C)c1c(C(=O)Nc2ccc(O)cc2)c(-c2ccccc2)c(-c2ccc(F)cc2)n1CC[C@H](O)C[C@H](O)CC(=O)O [BMS241423]
Activity [9]: inhibitor [+] | Activity [10]: inhibitor [+] | Activity [11]: inhibitor [+] | Activity [12]: inhibitor [+]

N[C@@H](Cc1cc(I)c(Oc2cc(I)c(O)c(I)c2)c(I)c1)C(=O)O [LEVOTHYROXINE]
Activity [13]: substrate [+]

CC[C@H](C)C(=O)O[C@H]1C[C@@H](C)C=C2C=C[C@H](C)[C@H](CC[C@@H]3C[C@@H](O)CC(=O)O3)[C@H]21 [LOVASTATIN]
Activity [14]: inhibitor [+] | Activity [15]: inhibitor [+] | Activity [16]: inhibitor [+] | Activity [17]: inhibitor [+]

C[C@]12CC[C@H](OS(=O)(=O)O)CC1=CC[C@@H]1[C@@H]2CC[C@]2(C)C(=O)CC[C@@H]12 [PRASTERONE SULFURIC ACID]
Activity [18]: inhibitor [+] | Activity [19]: inhibitor [+] | Activity [13]: substrate [+]

CCC(C)(C)C(=O)O[C@H]1C[C@@H](C)C=C2C=C[C@H](C)[C@H](CC[C@@H]3C[C@@H](O)CC(=O)O3)[C@H]21 [SIMVASTATIN]
Activity [20]: inhibitor [+] | Activity [21]: inhibitor [+]

B1: Solute carrier organic anion transporter family member 1B1 (Homo sapiens) (protein)
chain: MDQNQHLNKTAEAQPSENKKTRYCNGLKMFLAALSLSFIAKTLGAIIMKSSIIHIERRFEISSSLVGFIDGSFEIGNLLVIVFVSYFGSKLHRPKLIGIGCFIMGIGGVLTALPHFFMGYYRYSKETNINSSENSTSTLSTCLINQILSLNRASPEIVGKGCLKESGSYMWIYVFMGNMLRGIGETPIVPLGLSYIDDFAKEGHSSLYLGILNAIAMIGPIIGFTLGSLFSKMYVDIGYVDLSTIRITPTDSRWVGAWWLNFLVSGLFSIISSIPFFFLPQTPNKPQKERKASLSLHVLETNDEKDQTANLTNQGKNITKNVTGFFQSFKSILTNPLYVMFVLLTLLQVSSYIGAFTYVFKYVEQQYGQPSSKANILLGVITIPIFASGMFLGGYIIKKFKLNTVGIAKFSCFTAVMSLSFYLLYFFILCENKSVAGLTMTYDGNNPVTSHRDVPLSYCNSDCNCDESQWEPVCGNNGITYISPCLAGCKSSSGNKKPIVFYNCSCLEVTGLQNRNYSAHLGECPRDDACTRKFYFFVAIQVLNLFFSALGGTSHVMLIVKIVQPELKSLALGFHSMVIRALGGILAPIYFGALIDTTCIKWSTNNCGTRGSCRTYNSTSFSRVYLGLSSMLRVSSLVLYIILIYAMKKKYQEKDINASENGSVMDEANLESLNKNKHFVPSAGADSETHC
Km [22]: 33.7 µM

B2: Solute carrier organic anion transporter family member 1A1 (Rattus norvegicus) (protein)
chain: MEETEKKIATQEGRLFSKMKVFLLSLTCACLTKSLSGVYMNSMLTQIERQFDISTSVAGLINGSFEIGNLFFIVFVSYFGTKLHRPVVIGIGCVIMGLGCLLMSLPHFFMGRYEYETTISPTGNLSSNSFLCMENRTQTLKPTQDPAECVKEMKSLMWICVMVGNIIRGIGETPIVPLGISYIEDFAKSENSPLYIGILEMGKVAGPIFGLLLGSYCAQIYVDIGSVNTDDLTITPSDTRWVGAWWIGFLVCAGVNILTSIPFFFLPKALPKKGQQENVAVTKDGKVEKYGGQAREENLGITKDFLTFMKRLFCNPIYMLFILTSVLQVNGFINKFTFLPKYLEQQYGKSTAEAIFLIGVYSLPPICLGYLIGGFIMKKFKITVKKAAYLAFCLSVFEYLLFLCHFMLTCDNAAVAGLTTSYKGVQHQLHVESKVLADCNTRCSCSTNTWDPVCGDNGVAYMSACLAGCKKFVGTGTNMVFQDCSCIQSLGNSSAVLGLCKKGPECANRLQYFLILTIIISFIYSLTAIPGYMVFLRCVKSEEKSLGVGLHTFCIRVFAGIPAPVYFGALIDRTCLHWGTLKCGQRGACRMYDINSFRHIYLGLPIALRGSSYLPAFFILILMRKFQFPGDIDSSATDHTEMMLGEKESEHTDVHGSPQVENDGELKTKL
Km [23]: 30 µM

Source: ChEMBL document CHEMBL2073936, “A novel human hepatic organic anion transporting polypeptide (OATP2). Identification of a liver-specific human organic anion transporting polypeptide and identification of rat and human hydroxymethylglutaryl-CoA reductase inhibitor transporters” (J Biol Chem, 1999)
